Results from patent publication US20140107021A1 (priority 2010, published 2014).
Where two headings read alike, the source gives them in different places. Blank lines part the entries; values can stand above or below the compound they belong to. Square brackets hold non-standard residues; d marks the D form. Ends that are not written are not given here. Peptide text beside a SMILES is read from it. MCA = alpha-methylhydrocinnamic acid (2-methyl-3-phenylpropanoic acid); PEG 20 kDa = PEG of about 20 kDa linked to Cys (maleimido methoxyPEG); PLA = 3-phenyllactic acid (2-hydroxy-3-phenylpropanoic acid)

Target: glucagon receptor (Homo sapiens, UniProt P47871)
Assay: cell-based
Conditions: for IC50(nM) (cΛMP, inhibit 0.2 mM Glucagon): Table L
Text: HEK293 cells co-transfected with the receptor and luciferase gene linked to a cAMP responsive element were employed for the bioassay.
All EC50s and IC50s are reported in the following examples in nM, unless indicated otherwise.

Sequence of glucagon receptor (P47871 26-477): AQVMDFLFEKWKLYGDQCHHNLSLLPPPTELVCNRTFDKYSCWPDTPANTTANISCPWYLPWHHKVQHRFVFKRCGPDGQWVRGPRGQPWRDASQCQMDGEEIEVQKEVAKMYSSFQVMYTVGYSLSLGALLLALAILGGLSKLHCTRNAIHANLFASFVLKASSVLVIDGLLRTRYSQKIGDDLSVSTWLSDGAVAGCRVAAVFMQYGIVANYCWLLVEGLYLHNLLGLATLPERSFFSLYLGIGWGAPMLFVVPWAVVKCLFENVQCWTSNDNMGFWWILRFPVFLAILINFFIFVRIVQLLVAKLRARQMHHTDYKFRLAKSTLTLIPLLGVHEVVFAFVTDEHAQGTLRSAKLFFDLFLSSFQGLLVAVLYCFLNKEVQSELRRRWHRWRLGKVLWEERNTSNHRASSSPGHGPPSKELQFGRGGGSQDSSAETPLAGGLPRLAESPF

IC50 (read-out: Glucagon IC50, Table B): 63 nM
Compound: CSCC[C@H](NC(=O)[C@H](CC(C)C)NC(=O)[C@H](Cc1c[nH]c2ccccc12)NC(=O)[C@H](CCC(N)=O)NC(=O)[C@@H](NC(=O)[C@H](Cc1ccccc1)NC(=O)[C@H](CC(=O)O)NC(=O)[C@@H]1CCCCNC(=O)CC[C@H](NC(=O)[C@H](CC(=O)O)NC(=O)[C@H](CC(C)C)NC(=O)[C@H](Cc2ccc(O)cc2)NC(=O)[C@H](CCCCN)NC(=O)[C@H](CO)NC(=O)[C@H](Cc2ccc(O)cc2)NC(=O)[C@H](CCC(=O)O)NC(=O)[C@H](CO)NC(=O)[C@@H](NC(=O)[C@H](Cc2ccccc2)NC(=O)[C@@H](NC(=O)CNC(=O)[C@H](CCC(=O)O)NC(=O)[C@H](C)N)[C@@H](C)O)[C@@H](C)O)C(=O)N[C@@H](CCCNC(=N)N)C(=O)N[C@@H](CCCNC(=N)N)C(=O)N[C@@H](C)C(=O)N1)C(C)C)C(=O)N[C@@H](CC(=O)O)C(=O)N[C@H](C(N)=O)[C@@H](C)O [[A2E3, E16K20(Lactam),D28]G(2~29)]

IC50 (Glucagon IC50 (nM), Table B): 63 nM
Compound: CSCC[C@H](NC(=O)[C@H](CC(C)C)NC(=O)[C@H](Cc1c[nH]c2ccccc12)NC(=O)[C@H](CCC(N)=O)NC(=O)[C@@H](NC(=O)[C@H](Cc1ccccc1)NC(=O)[C@H](CC(=O)O)NC(=O)[C@H](CCC(N)=O)NC(=O)[C@H](C)NC(=O)[C@H](CCCNC(=N)N)NC(=O)[C@H](CCCNC(=N)N)NC(=O)[C@@H]1CCC(=O)NCCCC[C@H](NC(=O)[C@H](CO)NC(=O)[C@H](Cc2ccc(O)cc2)NC(=O)[C@H](CC(=O)O)NC(=O)[C@H](CO)NC(=O)[C@@H](NC(=O)[C@@H](O)Cc2ccccc2)[C@@H](C)O)C(=O)N[C@@H](Cc2ccc(O)cc2)C(=O)N[C@@H](CC(C)C)C(=O)N[C@@H](CC(=O)O)C(=O)N1)C(C)C)C(=O)N[C@@H](CC(=O)O)C(=O)N[C@H](C(N)=O)[C@@H](C)O [[PLA6, D9, K12E16(Lactam), D28]G(6-29)] (HELM PEPTIDE1{[O=C([C@@H](O)Cc1ccccc1)[*:2]].T.S.D.Y.S.K.Y.L.D.E.R.R.A.Q.D.F.V.Q.W.L.M.D.T.[am]}$PEPTIDE1,PEPTIDE1,7:R3-11:R3$$$V2.0)

Kb: 60.3 nM
Compound: CSCC[C@H](NC(=O)[C@H](CC(C)C)NC(=O)[C@H](Cc1c[nH]c2ccccc12)NC(=O)[C@H](CCC(N)=O)NC(=O)[C@@H](NC(=O)[C@H](Cc1ccccc1)NC(=O)[C@H](CC(=O)O)NC(=O)[C@H](CCC(N)=O)NC(=O)[C@H](C)NC(=O)[C@H](CCCNC(=N)N)NC(=O)[C@H](CCCNC(=N)N)NC(=O)[C@H](CO)NC(=O)[C@H](CC(=O)O)NC(=O)[C@H](CC(C)C)NC(=O)[C@H](Cc1ccc(O)cc1)NC(=O)[C@H](CCCCN)NC(=O)[C@H](CO)NC(=O)[C@H](Cc1ccc(O)cc1)NC(=O)[C@H](CCS(=O)(=O)O)NC(=O)[C@H](CO)NC(=O)[C@@H](NC(=O)[C@H](Cc1ccccc1)NC(=O)[C@@H](NC(=O)CN)[C@@H](C)O)[C@@H](C)O)C(C)C)C(=O)N[C@@H](CC(N)=O)C(=O)N[C@H](C(N)=O)[C@@H](C)O [[hCys^9(SO3H)]Glucagon(aa4-29)-NH2] (HELM PEPTIDE1{G.T.F.T.S.[O=C([C@H](CCS(=O)(=O)O)N[*:1])[*:2]].Y.S.K.Y.L.D.S.R.R.A.Q.D.F.V.Q.W.L.M.N.T.[am]}$$$$V2.0; N-terminus assumed)

Kb: 170 nM
Compound: CSCC[C@H](NC(=O)[C@H](CC(C)C)NC(=O)[C@H](Cc1c[nH]c2ccccc12)NC(=O)[C@H](CCC(N)=O)NC(=O)[C@@H](NC(=O)[C@H](Cc1ccccc1)NC(=O)[C@H](CC(=O)O)NC(=O)[C@H](CCC(N)=O)NC(=O)[C@H](C)NC(=O)[C@H](CCCNC(=N)N)NC(=O)[C@H](CCCNC(=N)N)NC(=O)[C@H](CO)NC(=O)[C@H](CC(=O)O)NC(=O)[C@H](CC(C)C)NC(=O)[C@H](Cc1ccc(O)cc1)NC(=O)[C@H](CCCCN)NC(=O)[C@H](CO)NC(=O)[C@H](Cc1ccc(O)cc1)NC(=O)[C@H](CCS(=O)(=O)O)NC(=O)[C@H](CO)NC(=O)[C@@H](NC(=O)[C@H](Cc1ccccc1)NC(=O)[C@@H](N)[C@@H](C)O)[C@@H](C)O)C(C)C)C(=O)N[C@@H](CC(N)=O)C(=O)N[C@H](C(N)=O)[C@@H](C)O [[hCys^9(SO3H)]Glucagon(aa5-29)-NH2] (HELM PEPTIDE1{T.F.T.S.[O=C([C@H](CCS(=O)(=O)O)N[*:1])[*:2]].Y.S.K.Y.L.D.S.R.R.A.Q.D.F.V.Q.W.L.M.N.T.[am]}$$$$V2.0; N-terminus assumed)

IC50(nM) (cΛMP, inhibit 0.2 mM Glucagon): no antagonism
Compound: [MCA6, E9, C24(20 kDaPEG)]Glucagon(aa6-29)-NII2 ([MCA]TSEYSKYLDSRRAQDFVC(PEG 20 kDa)WLMNT-NH2)

The next lines start with the compound.

Compound: CSCC[C@H](NC(=O)[C@H](CC(C)C)NC(=O)[C@H](Cc1c[nH]c2ccccc12)NC(=O)[C@H](CCC(N)=O)NC(=O)[C@@H](NC(=O)[C@H](Cc1ccccc1)NC(=O)[C@H](CC(=O)O)NC(=O)[C@H](CCC(N)=O)NC(=O)[C@H](C)NC(=O)[C@H](CCCNC(=N)N)NC(=O)[C@H](CCCNC(=N)N)NC(=O)[C@H](CO)NC(=O)[C@H](CC(=O)O)NC(=O)[C@H](CC(C)C)NC(=O)[C@H](Cc1ccc(O)cc1)NC(=O)[C@H](CCCCN)NC(=O)[C@H](CO)NC(=O)[C@H](Cc1ccc(O)cc1)NC(=O)[C@H](CCC(=O)O)NC(=O)[C@H](CO)NC(=O)[C@@H](NC(=O)[C@H](Cc1ccccc1)NC(=O)[C@@H](NC(=O)[C@@H](O)Cc1ccccc1)[C@@H](C)O)[C@@H](C)O)C(C)C)C(=O)N[C@@H](CC(N)=O)C(=O)N[C@H](C(N)=O)[C@@H](C)O [[PLA^4, E^9]Glucagon(aa4-29)-NH2] (HELM PEPTIDE1{[O=C([C@@H](O)Cc1ccccc1)[*:2]].T.F.T.S.E.Y.S.K.Y.L.D.S.R.R.A.Q.D.F.V.Q.W.L.M.N.T.[am]}$$$$V2.0)
IC50 (IC50(nM) (cAMP, inhibit 0.8 mM Glucagon), Table K, inhibit 0.8 mM Glucagon): 84.4 ± 19.5 nM

Compound: FTSDYSKYLDSRRAQDFVQWLMNT-NH2 [Glucagon(aa6-29)-NH2]
Kb: 115 nM
cAMP (I/A)50: 1730
cAMP pA2: 6.94 ± 0.63

Compound: GTFTSEYSKYLDSRRAQDFVQWLMNT-NH2 [[Glu^9]Glucagon(aa4-29)-NH2]
Kb: 89.1 nM

Compound: H-FTSKYSKYLDSRRAQDFVQWLMNT-NH2 [[Lys^9]Glucagon(aa6-29)-NH2]
Kb: 263 nM
cAMP (I/A)50: 1990
cAMP pA2: 6.58 ± 0.60

Compound: HSQGTFTSDYARYLDARRAREFIKWLVRGRG [ANK2 (Bayer peptide), reference compound]
Glucagon IC50 (nM) (Table B): agonist

Compound: [PLA6, C8(1.2 kDaPEG), E9]Glucagon(aa6-29)-NH2 ({PLA}-TC(PEG 1.2 kDa)EYSKYLDSRRAQDFVQWLMNT-NH2)
IC50(nM) (cΛMP, inhibit 0.2 mM Glucagon): no antagonism
